Molecular target: T1, sortase A (SrtA) (Staphylococcus aureus, UniProt Q2FV99)
T1 construct: 6 × His recombinant SrtA from pET28a::srtA
Assay: intrinsic fluorescence quenching (Stern-Volmer, KA); supported by FRET inhibition of purified SrtA (IC50 […]) and reversibility by dilution
Format: binding
Details: read-out: intrinsic fluorescence quenching (Stern-Volmer, KA); supported by FRET inhibitio (converted)
Source text: This indicated a significant interaction between verbascoside and SrtA

T1 sequence (Q2FV99 whole entry): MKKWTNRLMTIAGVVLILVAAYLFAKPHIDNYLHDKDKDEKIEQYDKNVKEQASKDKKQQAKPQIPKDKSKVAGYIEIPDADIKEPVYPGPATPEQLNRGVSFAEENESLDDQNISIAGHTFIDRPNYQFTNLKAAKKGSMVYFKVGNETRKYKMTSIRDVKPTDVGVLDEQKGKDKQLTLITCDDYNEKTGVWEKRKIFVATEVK

SMILES: C[C@@H]1O[C@@H](O[C@@H]2[C@@H](O)[C@H](OCCc3ccc(O)c(O)c3)O[C@H](CO)[C@H]2OC(=O)/C=C/c2ccc(O)c(O)c2)[C@H](O)[C@H](O)[C@H]1O [verbascoside]
- Kd: 41 µM

From PMC11153306, “Unraveling the efficacy of verbascoside in thwarting MRSA pathogenicity by targeting sortase A” (Applied Microbiology and Biotechnology, 2024)
